Among the data in PubChem BioAssay AID1418 (Emory University Molecular Libraries Screening Center, 2008) are IC50 values, retold here.

This assay addresses Induced myeloid leukemia cell differentiation protein Mcl-1 (Homo sapiens) (UniProt Q07820). As to the kind of experiment: blockers of Bid binding to Mcl-1 – biochemical, TR-FRET, dose response (AID 1418). The conditions noted are these: Mcl-1/Bid peptide binding, TR-FRET (europium/Dy647), 2 hr.

Calls of active or inactive are those of the source. How the calls were made is not given here.

One may read the IC50 as the concentration that gives 50% inhibition.

Chain of Induced myeloid leukemia cell differentiation protein Mcl-1 (Homo sapiens) (Q07820 whole entry, looked up): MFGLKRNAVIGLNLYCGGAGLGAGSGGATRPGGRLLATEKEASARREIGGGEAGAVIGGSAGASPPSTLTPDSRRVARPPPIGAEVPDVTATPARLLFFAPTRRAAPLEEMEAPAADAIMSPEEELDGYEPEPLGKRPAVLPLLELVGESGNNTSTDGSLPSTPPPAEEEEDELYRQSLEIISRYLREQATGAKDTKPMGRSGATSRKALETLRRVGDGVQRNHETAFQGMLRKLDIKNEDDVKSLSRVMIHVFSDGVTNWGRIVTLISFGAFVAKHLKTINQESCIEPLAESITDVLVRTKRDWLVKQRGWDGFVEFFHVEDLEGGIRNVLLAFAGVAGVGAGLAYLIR

As for `Cc1cc(/C=N/NC(=O)c2cccs2)c(C)n1-c1ccccc1`, the IC50 was > 54 µM (inactive).
The result for `CCN(CC)c1ccc(NC(=O)Cn2c(C(C)NC(=O)c3ccc(C)cc3)nc3ccccc32)cc1` (stereo unspecified) reads 0.9 µM.
Regarding `COC(=O)c1cc(NC(=S)NCc2ccc(Cl)cc2)cc(C(=O)OC)c1`, the IC50 is > 54 µM (inactive).
The result for `FC(F)(F)c1ccncc1-c1nnnn1-c1ccc(Cl)cc1` reads > 54 µM (inactive).
`O=C(N/N=C/c1ccncc1)c1cccc(S(=O)(=O)Nc2ccc(Cl)cc2)c1`: the concentration for half-maximal inhibition (IC50) is 2.24 µM.
Take `COc1ccccc1NC(=O)COc1cc(Br)c(CNCCCN2CCOCC2)cc1OC`: the IC50 was > 54 µM (inactive).
Regarding `CC1CCC(C(C)C)C(OC(=O)C[n+]2cc(-c3ccc(Cl)cc3)n3c2CCC3)C1` (stereo unspecified), the IC50 is > 54 µM (inactive).
For `COc1ccc(C2CC(c3ccccc3)Nc3nc(N)nn32)cc1` (stereo unspecified), the IC50 is > 54 µM (inactive).
Then `C/C(=N/NC(=O)c1cc(-c2cccc([N+](=O)[O-])c2)n[nH]1)c1ccc(Cl)cc1`, with 2.27 µM; and `N=C1/C(=C/c2ccc(-c3cccc(C(=O)O)c3)o2)C(=O)N=C2SC=C(c3ccccc3)N12`, with 1.02 µM; and `Cn1c(CSc2nc3ccccc3s2)nnc1SCC(=O)NCc1cccnc1`, with > 54 µM (inactive).
In the case of `O=C(O)C1Nc2c(O)cc(Cl)c([N+](=O)[O-])c2C2C=CCC12` (stereo unspecified), the IC50 was 0.58 µM.
On to `Cn1c(SCc2nc3ccccc3s2)nnc1-c1ccc2c(c1)OCO2`, for which the IC50 was > 54 µM (inactive).
With `O=c1/c(=C\c2cc([N+](=O)[O-])cc([N+](=O)[O-])c2O)sc2nc3ccccc3n12`, the half-maximal inhibitory concentration (IC50) was 1.07 µM.
Consider `O=S(=O)(c1ccccc1)N1CCN(Cc2ccccc2C(F)(F)F)CC1`, for which the IC50 was > 54 µM (inactive).
With `O=c1[nH]c(-c2ccccc2Cl)nc2c1sc(=S)n2-c1ccccc1`, the IC50 is > 54 µM (inactive).
The result for `Cc1ccc(-c2nc(CS(=O)CC(=O)N3CCC4(CC3)OCCO4)c(C)o2)cc1` (stereo unspecified) reads > 54 µM (inactive).
Then `Cc1ccc(NC(=O)CN2C(=O)/C(=C3\SC(=S)N(C4CCS(=O)(=O)C4)C3=O)c3ccccc32)cc1` (stereo unspecified), with 0.54 µM.
In the case of `COc1ccc(OC)c(NC(=S)N(CCc2c(C)[nH]c3ccc(C)cc23)Cc2cccs2)c1`, the IC50 is > 54 µM (inactive).
Then `C#CCOCCOCCOCCNc1nc(N2CCN(C(=O)[C@H](Cc3cc4ccccc4[nH]3)n3cc([C@@H](N)C(C)CC)nn3)CC2)nc(N2CCN(C(=O)[C@H](CCCCN)n3cc([C@@H](N)CC(C)C)nn3)CC2)n1` (stereo partly specified), with 16.9 µM; and `COc1ccc(CN2C(=O)/C(=C/c3ccc(-c4ccc(Cl)c(C(=O)O)c4)o3)SC2=S)cc1`, with 1.65 µM.
As to `CCNc1ccc2c(Cl)cc(=O)oc2c1`, the IC50 is > 54 µM (inactive).
The result for `Clc1ccc(SCCn2ccnc2)cc1` reads “inactive”; that for `COc1ccccc1CNC(=O)CC(NS(=O)(=O)c1ccc(C)cc1)c1ccco1` (stereo unspecified), > 54 µM (inactive).
Take `O=C(CSc1nccc(=O)[nH]1)c1ccccc1Br`: the IC50 was > 54 µM (inactive).
The result for `Cc1cc(NC2C3CC4CC(C3)CC2C4)n2nnnc2n1` (stereo unspecified) reads > 54 µM (inactive).
`O=C(N/N=C/c1ccc(F)cc1)c1cc(-c2ccco2)nc2ccccc12`: the IC50 was 3.3 µM.
Consider `CCOc1ccc(N=C2NC(=O)S/C2=C\c2ccc(O)cc2)cc1`, for which the IC50 was 0.84 µM.
The result for `Cc1c(NC(=S)NC(NC(=O)C(C)C)C(Cl)(Cl)Cl)c(=O)n(-c2ccccc2)n1C` (stereo unspecified) reads > 54 µM (inactive).
`Cc1cc(C)c(S(=O)(=O)/N=C2/C=C(Sc3ncn[nH]3)C(=O)c3ccccc32)cc1C`: the half-inhibitory concentration (IC50) was 1.19 µM.
`CC(C)C(C(=O)O)N1C(=O)/C(=C/C=C/c2ccco2)SC1=S` (stereo unspecified): the IC50 was 2.35 µM.
The result for `COC(=O)c1cc(OC)c(OC)cc1NCC(=O)Nc1ccc(C)cc1` reads > 54 µM (inactive); that for `O=C(O)CCN1C(=O)/C(=C\c2ccc(-c3nc4ccccc4s3)o2)SC1=S`, 0.57 µM; that for `CCc1ccc(C(CC(=O)c2ccc(Cl)cc2)C(=O)O)cc1` (stereo unspecified), > 54 µM (inactive).
As for `COc1cccc(-c2csc(N3CCN(C(=S)Nc4cccc(Cl)c4)CC3)n2)c1`, the IC50 is > 54 µM (inactive).
The result for `COc1cc2[nH]c(=S)n(N(C(C)=O)C(C)=O)c(=O)c2cc1OC` reads > 54 µM (inactive).
With `Oc1[nH]c2ccccc2c1/C=N/N1CCCCC1`, the IC50 is > 54 µM (inactive).
Then `O=C(N[C@@H](Cc1ccccc1)C(=O)O)c1ccncc1`, with > 54 µM (inactive); and `Cc1ccc(S(=O)(=O)/N=S(\C)C(C)C)cc1` (stereo unspecified), with > 54 µM (inactive); and `CC1C(c2ccccc2)N(C)CCC12NC(=O)NC2=O` (stereo unspecified), with > 54 µM (inactive).
The result for `CCN1C(=O)c2cccc3c(NC(=O)C4CCCCC4)ccc1c23` reads > 54 µM (inactive); that for `CC(C)N(C(=O)c1sc2cc([N+](=O)[O-])ccc2c1Cl)C(C)C`, > 54 µM (inactive).
Regarding `O=C(O)C[C@@H]1C(=O)O[C@@H]2C(COC(=O)c3cc(O)c(O)c(O)c3)O[C@@H](OC(=O)c3cc(O)c(O)c(O)c3)[C@@H](OC(=O)c3cc(O)c(O)c4c3[C@H]1[C@H](O)C(=O)O4)[C@H]2OC(=O)c1cc(O)c(O)c(O)c1` (stereo partly specified), the IC50 is 0.95 µM.
The result for `O=C(Cc1cccs1)N1CCN(S(=O)(=O)c2ccccc2)CC1` reads > 54 µM (inactive).
`CCN(CC)c1ccc2cc(-c3nc4ccccc4[nH]3)c(=O)oc2c1`: the IC50 was 1.62 µM.
The result for `COC(=O)c1sccc1NC(=O)c1cc(C)on1` reads > 54 µM (inactive); that for `Cc1ccc(-c2nnc(SCC(=O)N/N=C/c3ccc(C)s3)n2-c2ccc(C)cc2)cc1`, > 54 µM (inactive); that for `Cc1ccc(NC(=O)c2ccc3ncsc3c2)cc1S(=O)(=O)N(C)C`, “inactive”.
As to `O=c1c2ccccc2nc(/C=C/c2cccnc2)n1Cc1ccccc1`, the half-maximal inhibitory concentration (IC50) was 0.54 µM.
Take `COc1ccc(N2C(=O)CC(S/C(N)=N/N=C/c3ccnc4ccccc34)C2=O)cc1` (stereo unspecified): the IC50 was > 54 µM (inactive).
The result for `CNC(=O)C(=O)NCCN1CCN(C(=O)c2ccc([N+](=O)[O-])cc2)CC1` reads > 54 µM (inactive); that for `O=c1c2ccccc2nc(CSc2nnnn2-c2ccccc2)n1-c1ccccc1`, 18.7 µM.
Then `COc1ccccc1NC(=O)CSc1nc2ccccc2cc1Cc1ccccc1`, with > 54 µM (inactive).
Turning to `O=C(Nc1ccc(F)cc1)Nc1ccc(Oc2ncnc3cc(Cl)ccc23)nc1`, the IC50 is > 54 µM (inactive).
In the case of `COc1cccc(C(=O)N2CCN(Cc3ccccn3)CC2)c1OC`, the IC50 is > 54 µM (inactive).
In the case of `CN(C)c1ccnc2sc(C(N)=O)c(N)c12`, the IC50 was > 54 µM (inactive).
Take `CCCCCCCCCCCCCCCC(O)C(N)CO` (stereo unspecified): the IC50 is > 54 µM (inactive).
Then `O=C(CCN1CCc2ccccc2C1)Nc1cccc(F)c1`, with > 54 µM (inactive); and `Cc1ccc2nc(-c3ccc(SCC(=O)Nc4nnc(C)s4)nc3)[nH]c2c1`, with 8.48 µM.
Turning to `Nc1ccc(N)c(C(=O)O)c1`, the IC50 is 28.7 µM.
The result for `c1ccc2c(c1)ncn2CCCCOc1ccc2c(c1)CCC2` reads > 54 µM (inactive).
Then `C#Cc1ccc([C@@H]2C=C(C(=O)N3CCN(Cc4ccc5c(c4)OCO5)CC3)O[C@H](OCCCCO)C2)cc1`, with > 54 µM (inactive); and `COc1cc(C(=O)N/N=C\c2ccccc2)c([N+](=O)[O-])c(OC)c1OC`, with > 54 µM (inactive).
The result for `N=c1oc2cc(O)ccc2cc1C(=O)Nc1nc2ccccc2s1` reads > 54 µM (inactive); that for `COc1ccccc1NC(=O)c1cn(C)c(=O)c2cc(OC)c(OC)cc12`, > 54 µM (inactive); that for `CCc1ccc2c(CN(CC)Cc3nc4ccccc4c(=O)[nH]3)cc(=O)oc2c1`, > 54 µM (inactive).
For the compound `COc1ccc(-c2nc(-n3c(C)c(C(C)=O)c(C(C)=O)c3C)sc2C)cc1`, the IC50 is > 54 µM (inactive).
The result for `C=CCn1cc(C(=O)NCc2ccco2)c(=O)c2cc(S(=O)(=O)N3CCCCCC3)ccc21` reads > 54 µM (inactive); that for `Cc1ccc(COc2ccc(C(=O)NN)cc2)cc1`, > 54 µM (inactive).
Consider `Cc1[nH]n2c(=O)c3c(nc2c1-c1ccc(F)cc1)CCCC3`, for which the IC50 is > 54 µM (inactive).
The result for `Brc1cccc(OCCOCCn2ccnc2)c1` reads > 54 µM (inactive); that for `CC(CCC(=O)Nc1nncs1)C(=O)O` (stereo unspecified), > 54 µM (inactive).
The result for `CN1C(=O)/C(=C/c2ccccc2OCc2cccc(F)c2)NC1=S` reads > 54 µM (inactive); that for `CCOC(=O)CSc1nc(C2CC2)cc(-c2ccc(Cl)cc2)c1C#N`, > 54 µM (inactive).
The result for `Oc1ccc(/C=N/Nc2ccnc3cc(Cl)ccc23)c(O)c1` reads 6.69 µM; that for `CCCCN(Cc1cc2ccccc2[nH]c1=O)S(C)(=O)=O`, > 54 µM (inactive); that for `N#C/C(=C1/CCCCCN1)c1nc2ccccc2s1`, > 54 µM (inactive).
Regarding `Cc1ccc(CNC(=O)CCS(=O)(=O)c2cccc3nonc23)cc1`, the IC50 is > 54 µM (inactive).
Regarding `COc1ccccc1N1CCN(CC(=O)c2c(C)[nH]c3ccccc23)CC1`, the IC50 was > 54 µM (inactive).
The result for `COc1ccc(C2c3c(C)nn(-c4ccccc4)c3NC(=O)N2c2ccccc2)cc1` (stereo unspecified) reads > 54 µM (inactive); that for `O=C(Cn1c2ccccc2c(=O)c2ccccc21)N/N=C/c1cc([N+](=O)[O-])ccc1N1CCCCC1`, 0.65 µM.
Consider `COc1ccccc1C1CC(c2ccccc2)Nc2ncnn21` (stereo unspecified), for which the IC50 was > 54 µM (inactive).
The result for `CCOc1ccc(NC(=O)c2oc3ccccc3c2NC(=O)CC)cc1` reads > 54 µM (inactive); that for `CCCCSc1cc(C)nc(N)n1`, > 54 µM (inactive).
Then `O=c1c(C(c2ccccc2)c2c(O)sc3ccccc3c2=O)c(O)sc2ccccc12`, with 10.6 µM.
The result for `O=C(N/N=C/C(Br)=C\c1ccccc1)c1ccco1` reads > 54 µM (inactive).
